Consider 22 molecules from patent publication US6613879B1, “FAP-activated anti-tumour compounds” (Boehringer Ingelheim Pharma KG, priority 1999, dated 2003).

Each structure is given as a SMILES string. Residues, ends and D or L forms follow the SMILES beside them. *: point of attachment. NH(4-MeO-2-naphthyl) = COc1cc(N*)cc2ccccc12; AFC = O=c1cc(C(F)(F)F)c2ccc(N*)cc2o1; Cbz = O=C(OCc1ccccc1)* Bounds are passed on as bounds.

Assay [1] has as its target T1, FAPα dimers (Homo sapiens, UniProt Q12884).
T1 sequence (Q12884 1-760): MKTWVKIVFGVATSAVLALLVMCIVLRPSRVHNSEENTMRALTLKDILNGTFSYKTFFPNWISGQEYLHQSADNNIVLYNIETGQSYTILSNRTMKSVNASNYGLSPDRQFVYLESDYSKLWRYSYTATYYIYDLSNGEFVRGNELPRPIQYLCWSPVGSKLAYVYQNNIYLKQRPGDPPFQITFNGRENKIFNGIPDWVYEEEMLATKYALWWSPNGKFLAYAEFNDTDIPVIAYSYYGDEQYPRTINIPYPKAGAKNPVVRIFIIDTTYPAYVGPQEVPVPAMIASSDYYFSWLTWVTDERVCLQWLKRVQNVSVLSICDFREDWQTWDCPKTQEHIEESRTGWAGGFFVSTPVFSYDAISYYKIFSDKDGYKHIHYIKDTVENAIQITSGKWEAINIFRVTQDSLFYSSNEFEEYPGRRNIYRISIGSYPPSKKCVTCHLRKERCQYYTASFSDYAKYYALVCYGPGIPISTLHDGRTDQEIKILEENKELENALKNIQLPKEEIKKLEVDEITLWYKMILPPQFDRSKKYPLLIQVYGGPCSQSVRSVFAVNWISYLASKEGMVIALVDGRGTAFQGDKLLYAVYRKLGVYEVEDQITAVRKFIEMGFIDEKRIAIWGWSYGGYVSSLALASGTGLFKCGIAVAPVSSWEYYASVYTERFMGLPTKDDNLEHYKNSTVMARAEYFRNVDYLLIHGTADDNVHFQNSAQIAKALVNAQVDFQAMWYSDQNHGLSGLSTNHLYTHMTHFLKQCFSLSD
The note with it: membrane overlay assay; cited from earlier work.

Assay [2] has as its system parental HT1080 cell line. Conditions: 1 μM conjugate, serum-free medium, 19 hours at 37° C. The method, then: (§1) Mammalian cell lines expressing recombinant FAPα were prepared. HT1080 fibrosarcoma cells, widely known and available from the DSMZ (German Collection of Microorganisms and Cell Cultures, Braunschweig, Germany) under the accession number DSMZ ACC 315, were maintained in a DMEM/F12 mix 50:50 containing 10% fetal bovine serum in an atmosphere of 95% air and 5% CO2. HT1080 cells were transfected with FAP.38 vector (WO 97/34927, Scanlan et al., loc. cit.) using the Lipofectin method according to the manufacturer's instructions (Gibco/BRL). Transfectants were selected for resistance to antibiotics (200 μg/ml Geneticin) and thereafter maintained in medium containing Geneticin. Individual colonies of resistant cells were picked, grown to confluence in 10 cm tissue culture petri dishes and tested for FAPα expression in an immunofluorescence assay using the FAPα-specific monoclonal antibody F19, as described (Garin-Chesa et al. (1990) Proc. Natl. Acad. Sci. USA 87(18), 7235-7239).
(§2) Samples were separated by reversed-phase high performance liquid chromatographic (HPLC) assay that was established to measure cleavage of doxorubicin-peptide conjugates. […] Free doxorubicin and doxorubicin-peptide conjugates were detected by fluorescence (excitation, 475 nm; emission, 585 nm) using a Waters 474 fluorescence detector. […]

The target in assay [3] is T2, cell-bound FAPα (FAP-expressing cell line HT1080 clone 33) (Homo sapiens, UniProt Q12884).
T2 construct: expressed in transfected cells; host or cells: HT1080 fibrosarcoma cells, clone 33
T2 sequence (Q12884 1-760): T1 sequence (Q12884 1-760)
In words: Release of free doxorubicin by cell-bound FAPα, HT1080 clone 33 cells. The assay is classed as cell-based. The note with it: 1 μM conjugate, serum-free medium, 19 hours at 37° C. The method, then: as §1, §2

Assay [4] has as its target T3, soluble recombinant FAPα (FAPmCD8 fusion protein) (UniProt P01731+Q12884).
T3 construct: the extracellular domain of FAPα (amino acids 27 to 760), generating a fusion protein construct, FAPmCD8; extracellular domain of murine CD8α (Genbank M12825), N-terminal 189 amino acids (N); made in house; host or cells: High Five insect cells, recombinant baculovirus (pVL1393; amplified in Sf9)
The assay is described as follows: Cleavage of doxorubicin-peptide conjugates by soluble recombinant FAPα (HPLC release of free doxorubicin). It is filed as biochemical, human. Conditions: after 20 h. The method, then:
A soluble recombinant form of FAPα protein was prepared as follows. […] The cDNAs were verified by sequencing and inserted into the pVL1393 vector. […] The culture supernatant of High Five cells infected with recombinant FAPmCD8 baculovirus for four days was collected and cleared by ultracentrifugation. FAPmCD8 fusion protein was purified from such supernatants using an anti-FAPα monoclonal antibody immobilized on activated agarose beads (Pierce Chemical, Indianapolis, Ind., USA). […] The samples were immediately neutralized with a saturated Tris solution (Sigma Chemicals, St. Louis, Mo.) and protein-containing fractions were pooled.
Doxorubicin-peptide conjugate stock solutions (5 mM) were diluted with Hepes-buffered saline pH 7.4 to a final concentration of 50 to 100 μM. Twenty μl of the resulting solution was mixed with 50 μl of purified FAPmCD8 fusion protein (approximately 20 ng) described above and 30 μl Hepes-buffered saline, pH 7.4. The mixture was allowed to incubate at 37° C. for 1 day and release of free doxorubicin was measured in the HPLC assay described. Areas under each peak were quantified using the software package above and the initial value was set to 100%. The rate of release of free doxorubicin was measured by the appearance of a peak with the same retention time as free doxorubicin under these HPLC conditions. The areas under each peak were used to calculate the relative amounts of free doxorubicin to doxorubicin-peptide conjugate.

Assay [5] has as its target T4, FAPα enzyme derived from membrane extracts of the 293-I/2 transfected cells (Homo sapiens, UniProt Q12884).
T4 construct: made in house; host or cells: human embryonic kidney 293 cells, clone 293-I/2, membrane extract
T4 sequence (Q12884 1-760): T1 sequence (Q12884 1-760)
The assay is described as follows: FAPα-catalyzed cleavage of 4-methoxy-β-napthylamide (MNA)-peptide conjugates, enzyme kinetics. The note with it: release of free MNA, fluorimeter 355 nm/405 nm. It is filed as biochemical. How it is done: (§3) Release of free MNA from the peptides was then measured in a Cytofluor fluorimeter (Per-Septive Biosystems, Inc.) using the 355 nm excitation/405 nm emission filter set.

Assay [6] deals with T5, FAPα (Homo sapiens, UniProt Q12884).
T5 sequence (Q12884 1-760): T1 sequence (Q12884 1-760)
In words: Cleavage specificity of MNA-peptide conjugates, FAPα. Conditions: release of free MNA. It is filed as biochemical. How it is done:
as §3
(§4) Among the-known prolyl-specific serine oligopeptidase family members, the most closely related enzyme to FAPα is DPP-IV. Since active DPP-IV is found in plasma and on many different cell types, optimization of the relative (optional) selectivity of prodrug peptidics for FAPα compared to DPP-IV is necessary to reduce undesirable conversion of the prodrug at sites other than the tumor (e.g., in the plasma). To identify peptides specific for FAPα, cleavage of MNA-coupled peptides by FAPα was compared to the ability of DPP-IV to cleave the same peptide conjugates.

For assay [7], the target named is DPP-IV (Homo sapiens, UniProt P27487). In words: Cleavage specificity of MNA-peptide conjugates, DPP-IV. The assay is classed as biochemical. The note with it: release of free MNA. The method, then: as §3, §4
Chain of DPP-IV (P27487 whole entry, species assumed): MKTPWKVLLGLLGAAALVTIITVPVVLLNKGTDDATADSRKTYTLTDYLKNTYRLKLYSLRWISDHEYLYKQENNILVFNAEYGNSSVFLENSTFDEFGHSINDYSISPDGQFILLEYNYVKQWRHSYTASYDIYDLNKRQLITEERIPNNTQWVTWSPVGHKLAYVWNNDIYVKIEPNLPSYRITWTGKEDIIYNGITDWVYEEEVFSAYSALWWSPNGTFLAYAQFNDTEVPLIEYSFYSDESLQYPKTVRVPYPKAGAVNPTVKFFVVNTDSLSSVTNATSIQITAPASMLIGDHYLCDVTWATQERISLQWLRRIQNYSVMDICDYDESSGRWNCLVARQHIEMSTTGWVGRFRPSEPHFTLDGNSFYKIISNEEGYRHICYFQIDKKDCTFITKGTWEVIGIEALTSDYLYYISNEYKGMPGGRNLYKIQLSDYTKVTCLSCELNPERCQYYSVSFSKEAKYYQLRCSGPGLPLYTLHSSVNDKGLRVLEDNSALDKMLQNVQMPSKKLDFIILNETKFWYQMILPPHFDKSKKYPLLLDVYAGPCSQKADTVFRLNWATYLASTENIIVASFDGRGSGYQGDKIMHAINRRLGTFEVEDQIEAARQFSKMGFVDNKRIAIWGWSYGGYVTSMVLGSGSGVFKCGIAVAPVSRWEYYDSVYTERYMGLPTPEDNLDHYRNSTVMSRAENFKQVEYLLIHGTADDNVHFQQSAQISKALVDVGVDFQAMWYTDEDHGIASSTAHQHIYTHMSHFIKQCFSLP

T3 sequence (P01731+Q12884 fused): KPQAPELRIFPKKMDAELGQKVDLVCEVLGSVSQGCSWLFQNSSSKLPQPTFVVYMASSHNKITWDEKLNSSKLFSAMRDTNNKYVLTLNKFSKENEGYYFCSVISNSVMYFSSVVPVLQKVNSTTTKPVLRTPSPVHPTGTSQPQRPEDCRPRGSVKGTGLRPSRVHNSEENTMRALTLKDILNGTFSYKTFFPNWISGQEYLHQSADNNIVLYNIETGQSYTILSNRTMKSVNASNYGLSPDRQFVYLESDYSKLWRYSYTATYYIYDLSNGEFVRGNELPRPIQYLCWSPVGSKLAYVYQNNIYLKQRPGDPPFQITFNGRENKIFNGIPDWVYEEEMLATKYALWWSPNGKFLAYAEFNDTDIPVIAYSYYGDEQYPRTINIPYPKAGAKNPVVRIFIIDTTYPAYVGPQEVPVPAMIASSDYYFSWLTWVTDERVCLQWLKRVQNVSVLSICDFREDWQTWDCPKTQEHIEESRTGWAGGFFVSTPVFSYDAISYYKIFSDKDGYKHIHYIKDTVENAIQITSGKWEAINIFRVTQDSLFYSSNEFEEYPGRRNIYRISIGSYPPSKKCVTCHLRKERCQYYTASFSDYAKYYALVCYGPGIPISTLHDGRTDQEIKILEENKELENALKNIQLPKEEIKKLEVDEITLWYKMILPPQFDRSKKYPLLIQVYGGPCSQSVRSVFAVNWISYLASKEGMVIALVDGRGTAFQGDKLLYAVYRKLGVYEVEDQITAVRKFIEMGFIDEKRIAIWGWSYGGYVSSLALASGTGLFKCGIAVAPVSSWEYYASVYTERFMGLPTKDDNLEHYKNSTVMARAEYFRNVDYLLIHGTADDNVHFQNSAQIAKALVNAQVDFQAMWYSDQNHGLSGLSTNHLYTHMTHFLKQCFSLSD

Take `NCCCC[C@H](N)C(=O)N1CCC[C@H]1C(=O)Nc1ccc2c(C(F)(F)F)cc(=O)oc2c1` [Lys-Pro-7-amino-4-trifluoromethyl coumarin] (H-Lys-Pro-{AFC}): the “cleavage by FAPα dimers” value in assay [1] is “able to cleave”. In the case of `COc1cccc2c1C(=O)c1c(O)c3c(c(O)c1C2=O)CC(O)(C(=O)CO)CC3OC1CC(NC(=O)C2CCCN2C(=O)CNC(=O)C(C)NC(=O)C2CCCN2C(=O)OCc2ccccc2)C(O)C(C)O1` (stereo not drawn) [ZPAGP-Dox, N-Cbz-Pro-Ala-Gly-Pro-Doxorubicin], the “conversion of conjugate to free doxorubicin by parental HT1080 cell line” value in assay [2] is “Little or no detectable conversion”. Besides, the “conversion of conjugate to free doxorubicin by HT1080 clone 33” value in assay [3] is 43%. For the same molecule, the “Cleavage by FAP” value in assay [4] is >95%.

With `COc1cc(NC(=O)[C@@H]2CCCN2C(=O)[C@@H](N)CCSC)cc2ccccc12` [Met-Pro-MNA], in assay [5], the Kcat was 27.9 s⁻¹ and the Km (usually the substrate concentration at which the rate is half of its maximum) is 127 µM. Turning to `COc1cc(NC(=O)[C@@H]2CCCN2C(=O)[C@@H]2C[C@@H](O)CN2)cc2ccccc12` [trans-Hyp-Pro-MNA], in assay [5], the Kcat was 37.9 s⁻¹ and the Km was 254 µM. Taken in the same sequence, the figures for `COc1cc(NC(=O)[C@@H]2CCCN2C(=O)[C@@H](N)CCC(N)=O)cc2ccccc12` [Gln-Pro-MNA] were 40.5 s⁻¹ and 273 µM. Take `COc1cc(NC(=O)C2CCCN2C(=O)C(C)N)cc2ccccc12` (stereo not drawn) [Ala-Pro-MNA]: the “Cleavage specificity FAP” value in assay [6] was “+”. In assay [7], the “Cleavage specificity DPP IV” value is reported as “+”. Further, in assay [5], the Kcat turned out to be 35.7 s⁻¹ and the Km is 267 µM. As to `COc1cc(NC(=O)[C@@H]2CCCN2C(=O)[C@@H](N)CCCNC(=N)N)cc2ccccc12` [Arg-Pro-MNA], in assay [5], the Kcat stood at 50.6 s⁻¹ and the Km turned out to be 278 µM.

Turning to `COc1cccc2c1C(=O)c1c(O)c3c(c(O)c1C2=O)CC(O)(C(=O)CO)CC3OC1CC(NC(=O)C2CCCN2C(=O)C(N)C2CCCCC2)C(O)C(C)O1` (stereo not drawn) [H-Chg-, H-Chg-Pro-Dox], the “Cleavage by FAP” value in assay [4] is >95%.

With `COc1cc(NC(=O)[C@@H]2CCCN2C(=O)[C@@H](N)CC[S+](C)[O-])cc2ccccc12` (some centres unmarked) [Met(O)-Pro-MNA], in assay [5], the Kcat amounted to 26.9 s⁻¹ and the Km is 378 µM. As to `COc1cc(NC(=O)[C@@H]2CCCN2C(=O)[C@@H](N)CO)cc2ccccc12` [Ser-Pro-MNA], in assay [5], the Kcat was 28.3 s⁻¹ and the Km was 872 µM. As to `C[C@H](N)C(=O)N1CCC[C@H]1C(=O)Nc1ccc2c(C(F)(F)F)cc(=O)oc2c1` [Ala-Pro-7-amino-4-trifluoromethyl coumarin] (H-Ala-Pro-{AFC}), in assay [1], the “cleavage by FAPα dimers” value was “able to cleave”. Regarding `COc1cc(NC(=O)C2CCCN2C(=O)CNC(=O)OCc2ccccc2)cc2ccccc12` (stereo not drawn) [Z-Gly-Pro-MNA], in assay [6], the “Cleavage specificity FAP” value is recorded as “+”. Also, the “Cleavage specificity DPP IV” value in assay [7] was “−”. For `CC[C@H](C)[C@H](N)C(=O)N1CCC[C@H]1C(=O)Nc1cc(OC)c2ccccc2c1` [Ile-Pro-MNA], in assay [5], the Kcat is 12.6 s⁻¹ and the Michaelis constant (Km) came to 43 µM.

For `NCC(=O)N1CCC[C@H]1C(=O)Nc1ccc2c(C(F)(F)F)cc(=O)oc2c1` [Gly-Pro-7-amino-4-trifluoromethyl coumarin] (H-Gly-Pro-{AFC}), in assay [1], the “cleavage by FAPα dimers” value was “able to cleave”.

With `COc1cc(NC(=O)[C@@H]2CCCN2C(=O)[C@@H](N)C2CCCCC2)cc2ccccc12` [Chg-Pro-MNA], in assay [5], the Kcat came out at 53.7 s⁻¹ and the Km worked out at 75 µM.

Take `COc1cccc2c1C(=O)c1c(O)c3c(c(O)c1C2=O)CC(O)(C(=O)CO)CC3OC1CC(NC(=O)C2CCCN2C(=O)CNC(=O)C(C)NC(=O)C2CCCN2C(=O)OCC2c3ccccc3-c3ccccc32)C(O)C(C)O1` (stereo not drawn) [Fmoc-Pro-Ala-Gly-, Fmoc-Pro-Ala-Gly-Pro-Dox]: the “Cleavage by FAP” value in assay [4] is given as >95%.

Consider `COc1cc(NC(=O)[C@@H]2CCCN2C(=O)[C@@H](N)C(C)C)cc2ccccc12` [Val-Pro-MNA], for which, in assay [5], the Kcat was determined as 27.7 s⁻¹ and the Km was found to be 95 µM. On the same counts, the results for `COc1cc(NC(=O)C2CCCN2C(=O)C(N)CCCCN)cc2ccccc12` (stereo not drawn) [Lys-Pro-MNA] are 57.1 s⁻¹ and 530 µM. On to `COc1cccc2c1C(=O)c1c(O)c3c(c(O)c1C2=O)CC(O)(C(=O)CO)CC3OC1CC(NC(=O)C2CCCN2C(=O)CNC(=O)C(C)NC(=O)C2CCCN2)C(O)C(C)O1` (stereo not drawn) [H-Pro-Ala-Gly-, H-Pro-Ala-Gly-Pro-Dox], for which, in assay [4], the “Cleavage by FAP” value is “ca. 11%”.

On to `COc1cc(NC(=O)C2CCCN2C(=O)CNC(=O)C(C)NC(=O)C2CCCN2C(=O)OCc2ccccc2)cc2ccccc12` (stereo not drawn) [Z-Pro-Ala-Gly-Pro-MNA] (Cbz-PAGP-{NH(4-MeO-2-naphthyl)}; configuration not given here), for which the “Cleavage specificity FAP” value in assay [6] is recorded as “+”. The “Cleavage specificity DPP IV” value in assay [7] is “−”. Take `COc1cc(NC(=O)[C@@H]2CCCN2C(=O)[C@@H]2CCCN2)cc2ccccc12` [Pro-Pro-MNA, Pro-Pro-4-methoxy-β-naphthylamide]: in assay [5], the Kcat amounted to 49.5 s⁻¹ and the Michaelis-Menten constant (Km) was 154 µM. As to `COc1cc(NC(=O)[C@@H]2CCCN2C(=O)[C@@H](N)CCCCO)cc2ccccc12` [Hyn-Pro-MNA], in assay [5], the Kcat came out at 27.4 s⁻¹ and the Km was determined as 69 µM.
